Each block holds one compound with its values, some of them ahead of it. Activity calls are given as the source filed them. The calls are words filed in the database; no cut-off is given here.
Legend:
HeLa [1] = assay: Antimitotic activity against human HeLa cells assessed as cell cycle at 10 nM incubated for 2 hrs by immunofluorescence analysis; format: functional, cell-based
[2] = target: Tyrosine-protein kinase CSK (Homo sapiens, UniProt P41240); assay: Inhibition of CSK (unknown origin)
[3] = target: RAF proto-oncogene serine/threonine-protein kinase (Homo sapiens, UniProt P04049); assay: Inhibition of C-RAF (unknown origin)
NCI-H460 [4] = assay: Antitumor activity against human NCI-H460 cells xenografted female BomTac:NMRI-Foxn1nu mouse assessed as increase in mitotic index at 60 mg/kg, iv after 24 hrs administration by immunohistochemical method; format: functional, organism-based
[5] = target: T1, Dual specificity mitogen-activated protein kinase kinase 1 (Homo sapiens, UniProt Q02750); assay: Inhibition of MKK1 (unknown origin)
T1 sequence (Q02750 whole entry): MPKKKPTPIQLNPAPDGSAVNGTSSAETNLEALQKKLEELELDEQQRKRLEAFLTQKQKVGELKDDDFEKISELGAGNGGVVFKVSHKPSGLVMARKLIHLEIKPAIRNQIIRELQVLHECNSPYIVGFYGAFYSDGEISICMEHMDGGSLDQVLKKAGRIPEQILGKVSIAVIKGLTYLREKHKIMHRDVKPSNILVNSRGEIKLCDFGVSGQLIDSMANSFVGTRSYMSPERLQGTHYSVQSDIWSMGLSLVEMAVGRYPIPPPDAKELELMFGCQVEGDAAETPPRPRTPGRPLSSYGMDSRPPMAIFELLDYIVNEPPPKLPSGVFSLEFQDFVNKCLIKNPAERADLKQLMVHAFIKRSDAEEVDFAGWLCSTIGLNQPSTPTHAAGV

[6] = target: Serine/threonine-protein kinase B-raf (Homo sapiens, UniProt P15056); assay: Inhibition of B-RAF (unknown origin)
A549 = assay: Antitumor activity against human A549 cells xenografted female BomTac:NMRI-Foxn1nu mouse assessed as T/C at 50 mg/kg, iv twice per week administrated for 2 consecutive days relative to control; format: functional; settings: time 4 day
HeLa [7] = assay: Antimitotic activity against human HeLa cells assessed as accumulation in cleaved PARP p85 fragment at 60 nM incubated after 24 hrs by westernblot analysis; format: functional, cell-based
TERT-RPE1 [8] = assay: Antimitotic activity against hTERT-RPE1 cells assessed as mitotic cell appearing typical polo phenotype at 100 nM by immunofluorescence analysis relative to control; format: functional, Homo sapiens
HeLa [9] = assay: Antimitotic activity against human HeLa cells assessed as cell apoptosis at 60 nM incubated after 48 hrs by flow cytometric analysis; format: functional, cell-based
HeLa [10] = assay: Antimitotic activity against human HeLa cells assessed as DNA breakdown at 60 nM incubated after 24 hrs by flow cytometric analysis; format: functional, cell-based
[11] = target: Receptor tyrosine-protein kinase erbB-4 (Homo sapiens, UniProt Q15303); assay: Inhibition of ErbB4 (unknown origin)
HeLa [12] = assay: Antimitotic activity against human HeLa cells assessed as arrest in G2/M phase measuring by accumulation in 4N DNA content at 10 nM incubated for 24 hrs by flow cytometric analysis; format: functional, cell-based
[13] = Toxicity in against human HCT-116 cells xenografted female BomTac:NMRI-Foxn1nu mouse assessed as body weight change at 40 mg/kg, iv twice per week administrated for 2 consecutive days; format: organism-based; settings: in vivo, 96 h, time 4 day
Mus musculus = species on record: Mus musculus; assay: Inhibition of mouse Plk1
[14] = target: T1, Dual specificity mitogen-activated protein kinase kinase 1; assay: Inhibition of MEK1 (unknown origin)
HCT-116 [15] = assay: Antitumor activity against human HCT-116 cells xenografted female BomTac:NMRI-Foxn1nu mouse assessed as induction in tumor regression at 50 mg/kg, iv twice per week administrated for 2 consecutive days relative to control; format: functional, organism-based; settings: time 4.0 day
NCI-H460 [16] = assay: Antitumor activity against human NCI-H460 cells xenografted female BomTac:NMRI-Foxn1nu mouse assessed as increase in histone H3 phosphorylation at 60 mg/kg, iv after 24 hrs administration by immunohistochemical method; format: functional, organism-based
Ephrin type-A receptor 3 = Ephrin type-A receptor 3 (Homo sapiens, UniProt P29320); assay: Inhibition of Hek (unknown origin)
Sequence of Ephrin type-A receptor 3 (P29320 whole entry): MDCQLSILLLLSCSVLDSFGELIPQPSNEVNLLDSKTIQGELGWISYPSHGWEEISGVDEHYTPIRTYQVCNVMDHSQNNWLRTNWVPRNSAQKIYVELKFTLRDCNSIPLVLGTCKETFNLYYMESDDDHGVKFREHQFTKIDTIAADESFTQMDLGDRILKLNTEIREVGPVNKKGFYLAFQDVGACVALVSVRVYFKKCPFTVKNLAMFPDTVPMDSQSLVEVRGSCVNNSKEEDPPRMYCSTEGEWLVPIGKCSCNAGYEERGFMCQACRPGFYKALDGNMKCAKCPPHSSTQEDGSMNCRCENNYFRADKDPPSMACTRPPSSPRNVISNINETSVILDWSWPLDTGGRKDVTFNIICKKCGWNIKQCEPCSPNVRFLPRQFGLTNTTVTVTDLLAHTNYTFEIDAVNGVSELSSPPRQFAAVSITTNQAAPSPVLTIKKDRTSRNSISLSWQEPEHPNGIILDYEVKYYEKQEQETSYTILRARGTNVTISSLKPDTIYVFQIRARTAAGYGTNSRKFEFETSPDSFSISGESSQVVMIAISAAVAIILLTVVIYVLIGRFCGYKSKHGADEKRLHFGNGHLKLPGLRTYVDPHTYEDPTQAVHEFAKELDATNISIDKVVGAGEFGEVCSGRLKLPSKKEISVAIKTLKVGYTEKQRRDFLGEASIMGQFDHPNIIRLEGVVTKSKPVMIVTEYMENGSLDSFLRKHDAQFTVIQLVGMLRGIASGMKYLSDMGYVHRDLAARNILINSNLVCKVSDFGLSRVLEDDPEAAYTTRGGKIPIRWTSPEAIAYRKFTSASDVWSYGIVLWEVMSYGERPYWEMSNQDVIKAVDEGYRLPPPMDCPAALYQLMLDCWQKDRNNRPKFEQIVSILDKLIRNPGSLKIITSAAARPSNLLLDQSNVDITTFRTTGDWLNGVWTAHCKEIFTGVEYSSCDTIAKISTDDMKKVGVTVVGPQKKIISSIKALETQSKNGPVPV

HCT-116 [17] = assay: Antitumor activity against human HCT-116 cells xenografted female BomTac:NMRI-Foxn1nu mouse assessed as tumor suppression at 40 mg/kg, iv twice per week administrated for 2 consecutive days relative to control; format: functional; settings: time 2 day
[18] = target: Mitogen-activated protein kinase 14 (Homo sapiens, UniProt Q16539); assay: Inhibition of p38alpha (unknown origin)
[19] = target: Serine/threonine-protein kinase Sgk1 (Homo sapiens, UniProt O00141); assay: Inhibition of SGK (unknown origin)
Sequence of Serine/threonine-protein kinase Sgk1 (O00141 whole entry): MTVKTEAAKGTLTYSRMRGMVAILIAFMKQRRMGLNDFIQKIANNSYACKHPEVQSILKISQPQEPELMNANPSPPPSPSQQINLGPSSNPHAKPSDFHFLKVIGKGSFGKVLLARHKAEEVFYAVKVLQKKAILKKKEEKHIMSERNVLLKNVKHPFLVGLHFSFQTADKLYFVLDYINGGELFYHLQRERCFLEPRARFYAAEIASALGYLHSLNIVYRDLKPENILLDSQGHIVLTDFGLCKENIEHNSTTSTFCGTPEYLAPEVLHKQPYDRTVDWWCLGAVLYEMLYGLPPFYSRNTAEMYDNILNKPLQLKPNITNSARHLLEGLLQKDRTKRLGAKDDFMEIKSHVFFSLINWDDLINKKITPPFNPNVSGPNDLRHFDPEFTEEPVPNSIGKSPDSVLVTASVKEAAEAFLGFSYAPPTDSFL

HeLa [20] = assay: Antimitotic activity against human HeLa cells assessed as change in anaphase at 25 nM incubated for 2 hrs by immunofluorescence analysis; format: functional, cell-based
NCI-H460 [21] = assay: Antitumor activity against human NCI-H460 cells xenografted female BomTac:NMRI-Foxn1nu mouse assessed as appearance of massive tumor cell at 60 mg/kg, iv after 48 hrs administration by TUNEL staining; format: functional, organism-based
[22] = target: Macrophage-stimulating protein receptor (Homo sapiens, UniProt Q04912); assay: Inhibition of Ron (unknown origin)
HCT-116 [23] = assay: Antitumor activity against human HCT-116 cells xenografted female BomTac:NMRI-Foxn1nu mouse assessed as T/C at 40 mg/kg, iv once per week administrated for 2 consecutive days relative to control; format: functional; settings: time 4 day
BRO melanoma cell line = assay: Antiproliferative activity against human BRO melanoma cell line assessed as inhibition in cell growth incubated for 72 hrs by Alamar Blue dye based fluorescence spectrophotometric analysis; format: functional
[24] = target: Platelet-derived growth factor receptor beta (Homo sapiens, UniProt P09619); assay: Inhibition of PDGFRb (unknown origin)
Sequence of Platelet-derived growth factor receptor beta (P09619 whole entry): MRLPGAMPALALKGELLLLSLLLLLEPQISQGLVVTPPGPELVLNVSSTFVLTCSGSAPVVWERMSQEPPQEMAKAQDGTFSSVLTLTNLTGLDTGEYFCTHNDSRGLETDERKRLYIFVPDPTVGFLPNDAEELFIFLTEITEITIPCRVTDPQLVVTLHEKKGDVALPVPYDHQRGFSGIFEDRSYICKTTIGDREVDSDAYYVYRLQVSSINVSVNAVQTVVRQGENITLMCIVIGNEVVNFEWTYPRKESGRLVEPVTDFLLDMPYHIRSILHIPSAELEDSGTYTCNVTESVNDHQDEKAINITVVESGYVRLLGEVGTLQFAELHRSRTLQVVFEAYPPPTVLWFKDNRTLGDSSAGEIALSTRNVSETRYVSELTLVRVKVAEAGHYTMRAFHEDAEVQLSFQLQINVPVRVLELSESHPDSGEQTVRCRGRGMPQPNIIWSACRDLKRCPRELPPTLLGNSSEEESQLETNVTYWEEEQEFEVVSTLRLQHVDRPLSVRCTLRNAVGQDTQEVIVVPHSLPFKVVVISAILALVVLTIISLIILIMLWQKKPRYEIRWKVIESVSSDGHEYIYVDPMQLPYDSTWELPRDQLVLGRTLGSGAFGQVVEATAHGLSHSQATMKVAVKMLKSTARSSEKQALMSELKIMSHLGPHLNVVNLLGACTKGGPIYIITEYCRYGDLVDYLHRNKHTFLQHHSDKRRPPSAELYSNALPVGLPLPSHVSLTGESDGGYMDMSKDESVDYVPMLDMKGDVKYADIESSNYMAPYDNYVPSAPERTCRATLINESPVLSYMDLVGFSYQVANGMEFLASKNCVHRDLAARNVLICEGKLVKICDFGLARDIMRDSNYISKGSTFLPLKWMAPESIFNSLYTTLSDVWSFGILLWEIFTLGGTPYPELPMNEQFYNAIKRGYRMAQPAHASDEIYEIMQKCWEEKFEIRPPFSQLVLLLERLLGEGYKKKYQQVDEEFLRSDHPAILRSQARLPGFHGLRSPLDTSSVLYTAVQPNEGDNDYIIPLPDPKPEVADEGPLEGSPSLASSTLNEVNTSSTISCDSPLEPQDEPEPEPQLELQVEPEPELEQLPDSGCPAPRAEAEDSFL

[25] = target: Tyrosine-protein kinase ABL1 (Homo sapiens, UniProt P00519); assay: Inhibition of Abl (unknown origin)
Sequence of Tyrosine-protein kinase ABL1 (P00519 whole entry): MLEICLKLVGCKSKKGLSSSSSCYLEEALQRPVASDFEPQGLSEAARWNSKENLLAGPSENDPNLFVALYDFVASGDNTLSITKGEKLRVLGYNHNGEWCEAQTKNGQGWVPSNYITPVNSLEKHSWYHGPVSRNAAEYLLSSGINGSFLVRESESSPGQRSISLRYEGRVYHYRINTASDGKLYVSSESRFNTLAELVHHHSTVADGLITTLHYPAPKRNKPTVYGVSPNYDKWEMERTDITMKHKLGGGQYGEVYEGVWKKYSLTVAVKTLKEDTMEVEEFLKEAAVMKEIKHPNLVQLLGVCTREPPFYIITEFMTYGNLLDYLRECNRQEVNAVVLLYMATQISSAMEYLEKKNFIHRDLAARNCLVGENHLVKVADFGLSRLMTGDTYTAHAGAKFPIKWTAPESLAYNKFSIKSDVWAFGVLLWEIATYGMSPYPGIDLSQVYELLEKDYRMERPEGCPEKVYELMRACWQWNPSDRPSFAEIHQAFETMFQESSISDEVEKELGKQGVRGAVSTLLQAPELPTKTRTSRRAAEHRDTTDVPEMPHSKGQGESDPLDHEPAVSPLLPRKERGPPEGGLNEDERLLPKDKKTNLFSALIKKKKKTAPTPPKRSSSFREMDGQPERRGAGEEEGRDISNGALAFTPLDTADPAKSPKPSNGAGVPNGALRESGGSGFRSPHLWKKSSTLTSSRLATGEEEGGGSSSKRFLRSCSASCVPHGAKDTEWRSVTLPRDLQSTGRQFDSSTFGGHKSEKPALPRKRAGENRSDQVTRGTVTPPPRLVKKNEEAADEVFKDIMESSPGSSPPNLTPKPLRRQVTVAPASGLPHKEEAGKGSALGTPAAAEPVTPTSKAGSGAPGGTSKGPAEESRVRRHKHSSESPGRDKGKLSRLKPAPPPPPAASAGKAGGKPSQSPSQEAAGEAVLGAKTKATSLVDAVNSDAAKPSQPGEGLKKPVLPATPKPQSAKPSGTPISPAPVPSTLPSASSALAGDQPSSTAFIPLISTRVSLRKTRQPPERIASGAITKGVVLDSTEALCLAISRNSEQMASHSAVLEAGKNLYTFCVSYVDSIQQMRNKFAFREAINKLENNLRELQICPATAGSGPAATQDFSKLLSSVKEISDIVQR

[26] = target: Serine/threonine-protein kinase Nek6 (Homo sapiens, UniProt Q9HC98); assay: Inhibition of Nek6 (unknown origin)
HeLa [27] = assay: Antimitotic activity against human HeLa cells assessed as cell apoptosis at 60 nM incubated after 24 hrs by flow cytometric analysis; format: functional, cell-based
HCT-116 [28] = assay: Antitumor activity against human HCT-116 cells xenografted female BomTac:NMRI-Foxn1nu mouse assessed as apparent diffusion coefficient of water at 50 mg/kg, iv administration and measured on day 4 by MRI assay; format: functional, organism-based; settings: time 4.0 day
HeLa [29] = assay: Antimitotic activity against human HeLa cells assessed as appearance and distribution of phenotypes at 50 nM incubated for 2 hrs by immunofluorescence analysis; format: functional, cell-based
[30] = target: Fibroblast growth factor receptor 3 (Homo sapiens, UniProt P22607); assay: Inhibition of FGFR3 (unknown origin)
HeLa [31] = assay: Antimitotic activity against human HeLa cells assessed as DNA breakdown at 60 nM incubated after 48 hrs by flow cytometric analysis; format: functional, cell-based
[32] = target: Mitogen-activated protein kinase 8 (Homo sapiens, UniProt P45983); assay: Inhibition of JNK1 (unknown origin)
HeLa [33] = assay: Antimitotic activity against human HeLa cells assessed as accumulation in cleaved PARP p85 fragment at 60 nM incubated after 48 hrs by westernblot analysis; format: functional, cell-based
[34] = target: Serine/threonine-protein kinase PAK 2 (Homo sapiens, UniProt Q13177); assay: Inhibition of PAK2 (unknown origin)
Sequence of Serine/threonine-protein kinase PAK 2 (Q13177 whole entry): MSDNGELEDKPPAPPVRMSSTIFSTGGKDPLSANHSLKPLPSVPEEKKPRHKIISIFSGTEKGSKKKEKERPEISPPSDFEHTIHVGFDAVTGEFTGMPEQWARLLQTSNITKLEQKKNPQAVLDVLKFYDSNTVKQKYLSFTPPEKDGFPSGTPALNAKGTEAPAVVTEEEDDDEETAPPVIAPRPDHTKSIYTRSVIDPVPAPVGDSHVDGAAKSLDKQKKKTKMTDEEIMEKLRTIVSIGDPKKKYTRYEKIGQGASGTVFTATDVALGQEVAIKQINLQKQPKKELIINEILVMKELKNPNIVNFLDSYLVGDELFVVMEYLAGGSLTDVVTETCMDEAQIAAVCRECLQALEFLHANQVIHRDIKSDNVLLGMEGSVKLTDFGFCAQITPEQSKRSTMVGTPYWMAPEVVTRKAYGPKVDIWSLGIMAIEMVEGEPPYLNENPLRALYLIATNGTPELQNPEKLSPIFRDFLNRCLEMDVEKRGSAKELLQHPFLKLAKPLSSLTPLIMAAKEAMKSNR

HeLa [35] = assay: Antimitotic activity against human HeLa cells assessed as change in telophase at 25 nM incubated for 2 hrs by immunofluorescence analysis; format: functional, cell-based
[36] = target: Platelet-derived growth factor receptor alpha (Homo sapiens, UniProt P16234); assay: Inhibition of PDGFRa (unknown origin)
NCI-H460 [37] = assay: Antitumor activity against human NCI-H460 cells xenografted female BomTac:NMRI-Foxn1nu mouse assessed as appearance of cell apoptosis at 60 mg/kg, iv after 47 hrs administration by MRI assay; format: functional, organism-based
[38] = target: Mitogen-activated protein kinase 12 (Homo sapiens, UniProt P53778); assay: Inhibition of p38gamma (unknown origin)
BXPC-3 = assay: Antitumor activity against human BXPC-3 cells xenografted female BomTac:NMRI-Foxn1nu mouse assessed as T/C at 50 mg/kg, iv twice per week administrated for 2 consecutive days relative to control; format: functional; settings: time 4 day
Angiopoietin-1 receptor = Angiopoietin-1 receptor (Homo sapiens, UniProt Q02763); assay: Inhibition of Tie2 (unknown origin)
[39] = target: RAC-beta serine/threonine-protein kinase (Homo sapiens, UniProt P31751); assay: Inhibition of PKBbeta (unknown origin)
TERT-RPE1 [40] = assay: Antimitotic activity against hTERT-RPE1 cells assessed as remaining cell arrest at 100 nM by immunofluorescence analysis relative to control; format: functional, Homo sapiens
[41] = target: Mitogen-activated protein kinase 11 (Homo sapiens, UniProt Q15759); assay: Inhibition of p38beta (unknown origin)
Sequence of Mitogen-activated protein kinase 11 (Q15759 whole entry): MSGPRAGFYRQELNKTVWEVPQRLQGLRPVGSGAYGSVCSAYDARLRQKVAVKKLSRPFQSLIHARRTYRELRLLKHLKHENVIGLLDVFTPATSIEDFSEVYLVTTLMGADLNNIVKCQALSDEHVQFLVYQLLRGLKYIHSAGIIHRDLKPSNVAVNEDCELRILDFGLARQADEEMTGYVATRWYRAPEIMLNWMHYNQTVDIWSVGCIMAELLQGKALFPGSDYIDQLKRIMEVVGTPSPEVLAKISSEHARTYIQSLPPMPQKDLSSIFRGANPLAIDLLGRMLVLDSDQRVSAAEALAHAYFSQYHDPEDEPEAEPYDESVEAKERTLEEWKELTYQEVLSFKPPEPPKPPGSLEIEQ

[42] = Toxicity in against human HCT-116 cells xenografted female BomTac:NMRI-Foxn1nu mouse assessed as body weight change at 40 mg/kg, iv once per week administrated for 2 consecutive days; format: organism-based; settings: in vivo, 48 h, time 2 day
HeLa [43] = assay: Antimitotic activity against human HeLa cells assessed as appearance of monopolar polo spindles at 100 to 1000 nM incubated for 2 hrs by immunofluorescence analysis; format: functional, cell-based; settings: dose 100-1000 nM
HeLa [44] = assay: Antimitotic activity against human HeLa cells assessed as change in S phase at 60 nM incubated for 48 hrs by flow cytometric analysis; format: functional, cell-based
HeLa [45] = assay: Antimitotic activity against human HeLa cells assessed as cell arrest in G2/M phase at 60 nM incubated for 48 hrs by flow cytometric analysis; format: functional, cell-based
[46] = target: Phosphatidylinositol 4,5-bisphosphate 3-kinase catalytic subunit alpha isoform (Homo sapiens, UniProt P42336); assay: Inhibition of PI3Ka (unknown origin)
HeLa [47] = assay: Antimitotic activity against human HeLa cells assessed as accumulation of mitotic cells with spindles at 25 nM incubated for 2 hrs by immunofluorescence analysis; format: functional, cell-based
HeLa [48] = assay: Antimitotic activity against human HeLa cells assessed as centrosomal gamma tubulin recruitment at 100 to 2500 nM incubated for 2 hrs by immunofluorescence analysis; format: functional, cell-based; settings: dose 100-2500 nM
HeLa [49] = assay: Antimitotic activity against human HeLa cells assessed as accumulation in depolymerization of microtubules in interphase cells at 2500 nM incubated for 2 hrs by immunostaining; format: functional, cell-based
HeLa [50] = assay: Antimitotic activity against human HeLa cells assessed as monopolar asters at 100 to 2500 nM incubated for 2 hrs by immunofluorescence analysis; format: functional, cell-based; settings: dose 100-2500 nM
HeLa S3 = assay: Antiproliferative activity against human HeLa S3 cells assessed as inhibition in cell growth incubated for 72 hrs by Alamar Blue dye based fluorescence spectrophotometric analysis; format: functional; settings: HeLa S3, 72 h
HeLa [51] = assay: Antimitotic activity against human HeLa cells assessed as accumulation multipolar spindles at 100 to 2500 nM incubated for 2 hrs by immunofluorescence analysis; format: functional, cell-based; settings: dose 100-2500 nM

IC50 [2]: > 10 µM
IC50 [3]: > 10 µM
IC50 [5]: > 10 µM
IC50 [6]: > 10 µM
IC50 [11]: 9.91 µM
inhibition (Mus musculus): Active
IC50 [14]: > 10 µM
IC50 (Ephrin type-A receptor 3): > 10 µM
IC50 [18]: > 10 µM
IC50 [19]: > 10 µM
IC50 [22]: > 10 µM
EC50 (BRO melanoma cell line): 2 nM
IC50 [24]: > 10 µM
IC50 [25]: > 10 µM
IC50 [26]: > 10 µM
IC50 [30]: > 10 µM
IC50 [32]: > 10 µM
IC50 [34]: > 10 µM
IC50 [36]: > 10 µM
IC50 [38]: > 10 µM
IC50 (Angiopoietin-1 receptor): 6.55 µM
IC50 [39]: > 10 µM
IC50 [41]: > 10 µM
IC50 [46]: 2410 nM
SMILES: CC[C@@H]1C(=O)N(C)c2cnc(Nc3ccc(C(=O)NC4CCN(C)CC4)cc3OC)nc2N1C1CCCC1 [BI-2536]
Activity (HeLa [1]): Active
Activity (NCI-H460 [4]): Active
T/C (A549): 14%
Activity (HeLa [7]): Active
Activity (TERT-RPE1 [8]): ~70%
Activity (HeLa [9]): Active
Activity (HeLa [10]): Active
Activity (HeLa [12]): Active
Activity [13]: Non-Toxic
Activity (HCT-116 [15]): Active
Activity (NCI-H460 [16]): Active
Activity (HCT-116 [17]): 100%
Activity (HeLa [20]): inactive
Activity (NCI-H460 [21]): Active
T/C (HCT-116 [23]): 16%
Activity (HeLa [27]): Active
Activity (HCT-116 [28]): Active
Activity (HeLa [29]): Active
Activity (HeLa [31]): Active
Activity (HeLa [33]): Active
Activity (HeLa [35]): inactive
Activity (NCI-H460 [37]): Active
T/C (BXPC-3): 5%
Activity (TERT-RPE1 [40]): ~30%
Activity [42]: Non-Toxic
Activity (HeLa [43]): Active
Activity (HeLa [44]): inactive
Activity (HeLa [45]): Active
Activity (HeLa [47]): Active

EC50 (HeLa S3): 45 nM
SMILES: COc1cc(OC)c(/C=C/S(=O)(=O)Cc2ccc(OC)c(NCC(=O)O)c2)c(OC)c1 [RIGOSERTIB]
Activity (HeLa [48]): Active
Activity (HeLa [49]): Active
Activity (HeLa [50]): inactive
Activity (HeLa [51]): Active

Reference: ChEMBL document CHEMBL5661973, “BI 2536, a potent and selective inhibitor of polo-like kinase 1, inhibits tumor growth in vivo” (Curr Biol, 2007)
